Experimental data as given in patent publication US20230292776A1, “GAS PHASE TREATMENT OF PRODUCE” (priority 2022, published 2023).

Tested on: Botrytis cinerea (Bc)
Assay: Antifungal activity of AITC vapor and coating agent against Botrytis cinerea (Bc) in strawberries
Format: in vivo
Conditions: 30 minutes
Experimental: Example 13. The antifungal activity of AITC vapor against Bc in strawberries was tested. All samples were wounded by making a 3 mm deep puncture in the skin. Samples were infected by dispensing 1000 Bc spores suspended in 10 μL of water in the wound. Samples were then incubated at ambient temperature, imaged, and assessed for mold over the following 3 days. The test group consisted of strawberries that were: uninfected and untreated; infected and untreated; and exposed for 30 minutes to the vapor of 125 uL AITC dispensed on Whatman filter paper. […] The infection rates in the initially uninfected sample indicate that the step involving the initial infection of the wound by dispensing the Bc spores may not be necessary to promote infection in the test groups.
Example 14. The antifungal activity of a range of AITC vapor concentrations against Bc in strawberries was tested. Samples were treated by exposure for 30 minutes to the vapor of a range of volumes of AITC disposed on a filter paper disc, then incubated at ambient temperature, imaged, and assessed for mold over the following 6 days. Test groups consisted of strawberries that were untreated and strawberries exposed to the vapor of 62.5 μL, 125 μL, 250 μL, and 500 μL of AITC. […] On day 6, 83% of the untreated control strawberries were infected, 100% of the 62.5 μL AITC dose strawberries were infected, 13% of the 125 μL AITC dose strawberries were infected, and 0% of the 250 and 500 μL AITC dose strawberries were infected. For strawberries incubated at room temperature, all of the AITC doses above 62.5 μL were effective at preventing mold, with doses above 125 μL substantially eliminating mold.
Example 15. The antifungal activity of AITC vapor under different exposure conditions against Bc in strawberries was tested. Test groups consisted of strawberries that were untreated and treated by exposure for 30 minutes to the vapor of 125 μL of AITC disposed on a filter paper disc. Test groups were then incubated in either open or closed containers at 4° C., imaged, and assessed for mold over the following 14 days. […] All samples were free of mold through 7 days. On day 12, 16.7% of the open air controls were infected, 29.2% of closed container controls were infected, and 0% of the AITC treated were infected. On day 14, 33.3% of the open air controls were infected, 41.7% of closed container controls were infected, 0% of the open air AITC treated were infected, and 4.2% of the closed container AITC treated were infected. For strawberries incubated at 4° C., AITC treatment was effective in reducing the incidence of mold over a two week period. While ⅓ of the open air untreated samples were infected, none of the open air AITC-treated were infected. Over 40% of the closed container controls were infected. A single strawberry was infected in the closed container AITC-treated test group.
Example 16. The antifungal activity of AITC vapor against Bc in strawberries treated with a coating agent (95 wt % glyceryl monostearate and 5 wt % sodium stearate) and exposed to vapor in clamshells was tested. Test groups consisted of strawberries that were: untreated; dipped in 40 g/L solution of the coating agent; exposed for 30 minutes to the vapor of 125 μL of AITC disposed on a filter paper disc; and dipped in 40 g/L solution of the coating agent and exposed for 30 minutes to the vapor of 125 μL of AITC disposed on a filter paper disc. Samples were treated, incubated at ambient temperature, imaged, and assessed for mold over the following 4 days. […] On day 3, 52.8% of the controls were infected, 42.1% of the coating agent were infected, 26.3% of the AITC were infected, and 9.3% of the coating agent+AITC were infected. On day 4, 88.9% of the controls were infected, 76.3% of the coating agent were infected, 71% of the AITC were infected, and 34.9% of the coating agent+AITC were infected. […] Bowl dipping in the coating solution also presented challenges for drying around the calyx.
Example 17. […]

SMILES: C=CCN=C=S [AITC, allyl isothiocyanate]
- visible mold on strawberries (Example 13, 125 uL, after 24 hours): no mold was visible
- fraction of samples showing visible mold (Example 13, 125 uL, after 48 hours): ⅛
- fraction of samples showing visible mold (Example 13, 125 uL, after 72 hours): ¼
- strawberries infected (Example 14, 62.5 μL dose, day 6, ambient temperature): 100%
- strawberries infected (Example 14, 125 μL dose, day 6, ambient temperature): 13%
- strawberries infected (Example 14, 250 and 500 μL dose, day 6, ambient temperature): 0%
- strawberries infected (Example 15, 125 μL, 4° C., closed container, day 14): 4.2%
- strawberries infected (Example 15, 125 μL, 4° C., open air, day 14): 0%
- strawberries infected (Example 15, 125 μL, incubated at 4° C., day 12): 0%
- strawberries infected (Example 16, clamshells, coating agent 40 g/L dip, AITC 125 μL, day 3): 26.3%
- strawberries infected (Example 16, clamshells, coating agent 40 g/L dip, AITC 125 μL, day 4): 71%
